Literature values, collected in article PMC11010885, “Functional Analysis and Tissue-Specific Expression of Calcitonin and CGRP with RAMP-Modulated Receptors CTR and CLR in Chickens” (Animals : an Open Access Journal from MDPI, 2024).

System: RAMP1- and RAMP3-derived amylin receptors
Settings: ref [51],[53]; cited from earlier work
Method: In mammals, CTR functions as a receptor for three distinct hormones: CT, CGRP, and amylin (not explored in this study). The specific affinity spectrum is determined by its co-expression with RAMPs. Although CTR alone is a receptor for CT that is involved in bone homeostasis, CTRs in complex with RAMP1–3 are high-affinity receptors for amylin, a peptide involved in the regulation of food intake. […] The CTR + RAMP1 complex is a ...

Row | Substance | affinity
1 | human CT: human CT, cited from the literature | low affinity
2 | rat amylin: rat amylin, cited from the literature | moderate affinity
